For ten compounds, change in vivo and melting point results are on record in patent US7135492B2, “1,3-disubstituted-2- thioxo-imidazolidine-4,5-dione derivatives useful in the treatment of atherosclerosis” (Wyeth, priority 2001, dated 2006).

Data set [1] concerns blood serum HDL cholesterol. As to the kind of experiment: Determination of serum HDL cholesterol in cholesterol/cholic acid-fed rats. Type of data set: in vivo. The conditions noted are these: Rattus norvegicus, feed or water, 192 h; male Sprague-Dawley rats, diet supplemented with 0.25% cholic acid and 1.0% cholesterol; 100 mg/kg mixed in diet; eight days; serum HDL-C by FPLC; read-out: HDL Cholesterol Level Increase (%). As to the method:
The ability of the compounds of this invention to increase blood serum HDL levels was established by the following standard experimental procedure for determination of HDL cholesterol:
Male Sprague-Dawley rats weighing 200–225 g were housed two per cage and fed Purina Rodent Chow Special Mix 5001-S supplemented with 0.25% cholic acid and 1.0% cholesterol and water ad libitum for 8 days. Each test substance was administered to a group of six rats fed the same diet with the test diet mixed in as 0.005–0.1% of the total diet. Body weight and food consumption were recorded prior to diet administration and at termination. Typical doses of the test substances are 5–100 mg/kg/day.
At termination, blood was collected from anesthetized rats and the serum was separated by centrifugation. Total serum cholesterol was assayed using the Sigma Diagnostics enzymatic kit for the determination of cholesterol, Procedure No. 352, modified for use with ninety-six well microtiter plates. After reconstitution with water the reagent contained 300 U/I cholesterol oxidase, 100 U/I cholesterol esterase, 1000 U/I horseradish peroxidase, 0.3 mmoles/l 4-aminoantipyrine and 30.0 mmoles/l p-hydroxybenzenesulfonate in a pH 6.5 buffer. In the reaction, cholesterol was oxidized to produce hydrogen peroxide which is used to form a quinoneimine dye. The concentration of dye formed was measured spectrophotometrically by absorbance at 490 nm after incubation at 25° C. for 30 minutes. The concentration of cholesterol was determined for each serum sample relative to a commercial standard from Sigma.
HDL cholesterol concentrations in serum were determined by separation of lipoprotein classes by fast protein liquid chromatography (FPLC) by a modification of the method of Kieft et al., J. Lipid Res., 32 (1991) 859–866. 25 ul of serum was injected onto Superose 12 and Superose 6 (Pharmacia), in series, with a column buffer of 0.05 M Tris (2-amino-2-hydroxymethyl-1,3-propanediol) and 0.15 M sodium chloride at a flow rate of 0.5 ml/min. The eluted sample was mixed on line with Boehringer-Mannheim cholesterol reagent pumped at 0.2 ml/min. The combined eluents were mixed and incubated on line through a knitted coil (Applied Biosciences) maintained at a temperature of 45 C. The eluent was monitored by measuring absorbance at 490 nm and gave a continuous absorbance signal proportional to the cholesterol concentration. The relative concentration of each lipoprotein class was calculated as the percent of total absorbance. HDL cholesterol concentration, in serum, was calculated as the percent of total cholesterol as determined by FPLC multiplied by the total serum cholesterol concentration.
Test compounds were administered at a dose of 100 mg/kg. Each test substance is administered to a group of six rats. The duration of treatment was eight days.

Molecules are shown by their SMILES.

A word on the melting point: it is the temperature of the solid-liquid transition. The compound `CCOC(=O)CON1C(=O)C(=O)N(c2cc(Cl)ccc2C)C1=S` [Example 1, Ethyl 2-{[3-(5-chloro-2-methylphenyl)-4,5-dioxo-2-thioxo-1-imidazolidinyl]oxy}acetate] showed a melting point of 157 to 159 °C. Further, the change in vivo at 100 mg/kg in data set [1] was 242%.
With `CCOC(=O)CON1C(=O)C(=O)N(c2ccccc2SC)C1=S` [Example 2, Ethyl 2-({3-[2-(methylsulfanyl)phenyl]-4,5-dioxo-2-thioxo-1-imidazolidinyl}oxy)acetate], the melting point lay in the range of 112 to 114 °C. Besides, in data set [1], the change in vivo at 100 mg/kg was 196%.
For the compound `CCN1C(=O)C(=O)N(c2cc(Cl)ccc2C)C1=S` [Example 3, 1-(5-Chloro-2-methylphenyl)-3-ethyl-2-thioxo-4,5-imidazolidinedione], the melting point is 173 to 174 °C. The change in vivo at 100 mg/kg in data set [1] was determined as 19%.
Compound `CCN1C(=O)C(=O)N(c2cc(F)ccc2C)C1=S` [Example 4, 1-Ethyl-3-(5-fluoro-2-methylphenyl)-2-thioxo-4,5-imidazolidinedione] came in with a melting point of 152 to 153 °C. Also, the change in vivo at 100 mg/kg in data set [1] came to 203%.
Compound `Cc1ccc(Cl)cc1N1C(=O)C(=O)N(C)C1=S` [Example 5, 1-(5-Chloro-2-methylphenyl)-3-methyl-2-thioxo-4,5-imidazolidinedione] showed a melting point of 171 to 173 °C. The change in vivo at 100 mg/kg in data set [1] came to 186%.
`Cc1cccc(C)c1N1C(=O)C(=O)N(C)C1=S` [Example 6, 1-(2,6-Dimethylphenyl)-3-methyl-2-thioxo-4,5-imidazolidinedione] showed a melting point of 144 to 146 °C. Moreover, the change in vivo at 100 mg/kg in data set [1] was 227%.
In turn, `CCN1C(=O)C(=O)N(c2ccc(F)cc2)C1=S` [Example 7, 1-Ethyl-3-(4-fluorophenyl)-2-thioxo-4,5-imidazolidinedione] displayed a melting point of 172 to 174 °C. In addition, the change in vivo at 100 mg/kg in data set [1] worked out at 199%.
The like results for `CCN1C(=O)C(=O)N(c2ccc(Cl)cc2C)C1=S` [Example 8, 1-(4-Chloro-2-methylphenyl)-3-ethyl-2-thioxo-4,5-imidazolidinedione] were, in that order, 161 to 162 °C and 103%.
`C#CCN1C(=O)C(=O)N(c2cc(Cl)ccc2C)C1=S` [Example 9, 1-(5-Chloro-2-methylphenyl)-3-(2-propynyl)-2-thioxo-4,5-imidazolidinedione] registered a melting point of 162 to 164 °C. For the same compound, in data set [1], the change in vivo at 100 mg/kg came to 114%.
The matching figures for `CCN1C(=O)C(=O)N(c2c(C)cccc2C)C1=S` [Example 10, 1-(2,6-Dimethylphenyl)-3-ethyl-2-thioxo-4,5-imidazolidinedione]: 103 to 105 °C and 36%.
